Results: ChEMBL document CHEMBL4184165, “Unique arginine array improves cytosolic localization of hydrocarbon-stapled peptides” (Bioorg Med Chem, 2018)
Where a SMILES comes first, the peptide text is derived from it. Bridges are numbered along the chain shown (N, C = ends). [ ]: non-standard residue; d: D form. The star is where a group is joined. X1 = CCN(CC)c1ccc2c(-c3ccc(S(=O)(=O)*)cc3S(=O)(=O)[O-])c3ccc(=[N+](CC)CC)cc-3oc2c1; R8 = C=CCCCCCC[C@@](C)(N)C(=O)O; S5 = C=CCCC[C@](C)(N)C(=O)O; βAla = NCCC(=O)O

Assays:
[1] = Drug uptake in cytosol of human HeLa cells at 500 nM after 30 mins by FCS analysis; type: ADME, subcellular; settings: 0.5 h, 0.5 µM
[2] = Drug uptake in cytosol of human HeLa cells at 500 nM after 30 mins by FCS analysis relative to control; type: ADME, subcellular; settings: 0.5 h, 0.5 µM
SJSA-1 = experiment: Cytotoxicity in human SJSA1 cells over expressing human DM2 after 24 hrs by CellTiter-Glo assay; type: functional, cell-based; settings: SJSA-1, 24 h

Row | Drug uptake [2] | SMILES | Drug uptake [1] | EC50 (SJSA-1)
1 | 13.8% | CCN(CC)c1ccc2c(-c3ccc(S(=O)(=O)NCCC(=O)N[C@@H](CCCNC(=N)N)C(=O)N[C@@H](CO)C(=O)N[C@@H](CCC(N)=O)C(=O)N[C@@H](CCC(=O)O)C(=O)N[C@@H](CCCNC(=N)N)C(=O)N[C@@H](Cc4ccccc4)C(=O)N[C@]4(C)CCCCCC/C=C/CCC[C@@](C)(C(=O)N[C@@H](CCC(=O)O)C(=O)N[C@@H](CC(N)=O)C(N)=O)NC(=O)[C@H](CC(C)C)NC(=O)[C@H](CCCNC(=N)N)NC(=O)[C@H](CCCNC(=N)N)NC(=O)[C@H](Cc5c[nH]c6ccccc56)NC(=O)[C@H](CC(C)C)NC(=O)[C@H](CCCNC(=N)N)NC4=O)cc3S(=O)(=O)[O-])c3ccc(=[N+](CC)CC)cc-3oc2c1 ({X1-βAla}-RSQERF[R8]RLWRRL[S5]EN-NH2; staple (E) 7-14) | 69 nM | –
2 | – | CC(=O)N[C@@H](CCCNC(=N)N)C(=O)N[C@@H](CO)C(=O)N[C@@H](CCC(N)=O)C(=O)N[C@@H](CCC(=O)O)C(=O)N[C@@H](CCCNC(=N)N)C(=O)N[C@@H](Cc1ccccc1)C(=O)N[C@]1(C)CCCCCC/C=C/CCC[C@@](C)(C(=O)N[C@@H](CCCNC(=N)N)C(=O)N[C@@H](CCCNC(=N)N)C(N)=O)NC(=O)[C@H](CC(C)C)NC(=O)[C@H](CCCNC(=N)N)NC(=O)[C@H](CCCCN)NC(=O)[C@H](Cc2c[nH]c3ccccc23)NC(=O)[C@H](CC(C)C)NC(=O)[C@H](CC(=O)O)NC1=O (Ac-RSQERF[R8]DLWKRL[S5]RR-NH2; staple (E) 7-14) | – | 7.7 µM
3 | 51.9% | CCN(CC)c1ccc2c(-c3ccc(S(=O)(=O)NCCC(=O)N[C@@H](CCC(N)=O)C(=O)N[C@@H](CO)C(=O)N[C@@H](CCC(N)=O)C(=O)N[C@@H](CCC(N)=O)C(=O)N[C@H](C(=O)N[C@@H](Cc4ccccc4)C(=O)N[C@]4(C)CCCCCC/C=C/CCC[C@@](C)(C(=O)N[C@@H](CCC(N)=O)C(=O)N[C@@H](CC(N)=O)C(N)=O)NC(=O)[C@H](CC(C)C)NC(=O)[C@H](CC(C)C)NC(=O)[C@H](CCCCN)NC(=O)[C@H](Cc5c[nH]c6ccccc56)NC(=O)[C@H](CC(C)C)NC(=O)[C@H](CC(N)=O)NC4=O)[C@@H](C)O)cc3S(=O)(=O)[O-])c3ccc(=[N+](CC)CC)cc-3oc2c1 ({X1-βAla}-QSQQTF[R8]NLWKLL[S5]QN-NH2; staple (E) 7-14) | 256 to 260 nM | –
4 | – | CC(=O)N[C@@H](CC(C)C)C(=O)N[C@@H](CO)C(=O)N[C@@H](CCC(N)=O)C(=O)N[C@@H](CCC(=O)O)C(=O)N[C@H](C(=O)N[C@@H](Cc1ccccc1)C(=O)N[C@]1(C)CCCCCC/C=C/CCC[C@@](C)(C(=O)N[C@@H](CCCNC(=N)N)C(=O)N[C@@H](CCCNC(=N)N)C(N)=O)NC(=O)[C@H](CC(C)C)NC(=O)[C@H](CCCNC(=N)N)NC(=O)[C@H](CCCNC(=N)N)NC(=O)[C@H](Cc2c[nH]c3ccccc23)NC(=O)[C@H](CC(C)C)NC(=O)[C@H](CCCNC(=N)N)NC1=O)[C@@H](C)O (Ac-LSQETF[R8]RLWRRL[S5]RR-NH2; staple (E) 7-14) | – | 1.9 µM
5 | – | CC(=O)N[C@@H](CC(C)C)C(=O)N[C@@H](CCCNC(=N)N)C(=O)N[C@@H](CCCNC(=N)N)C(=O)N[C@@H](CCC(=O)O)C(=O)N[C@H](C(=O)N[C@@H](Cc1ccccc1)C(=O)N[C@]1(C)CCCCCC/C=C/CCC[C@@](C)(C(=O)N[C@@H](CCCNC(=N)N)C(=O)N[C@@H](CC(N)=O)C(N)=O)NC(=O)[C@H](CC(C)C)NC(=O)[C@H](CCCNC(=N)N)NC(=O)[C@H](CCCCN)NC(=O)[C@H](Cc2c[nH]c3ccccc23)NC(=O)[C@H](CCCNC(=N)N)NC(=O)[C@H](CC(=O)O)NC1=O)[C@@H](C)O (Ac-LRRETF[R8]DRWKRL[S5]RN-NH2; staple (E) 7-14) | – | 7.7 µM
6 | – | CC(=O)N[C@@H](CCCNC(=N)N)C(=O)N[C@@H](CO)C(=O)N[C@@H](CCC(N)=O)C(=O)N[C@@H](CCCNC(=N)N)C(=O)N[C@@H](CCCNC(=N)N)C(=O)N[C@@H](Cc1ccccc1)C(=O)N[C@]1(C)CCCCCC/C=C/CCC[C@@](C)(C(=O)N[C@@H](CCC(=O)O)C(=O)N[C@@H](CC(N)=O)C(N)=O)NC(=O)[C@H](CC(C)C)NC(=O)[C@H](CC(C)C)NC(=O)[C@H](CCCNC(=N)N)NC(=O)[C@H](Cc2c[nH]c3ccccc23)NC(=O)[C@H](CC(=O)O)NC(=O)[C@H](CCCNC(=N)N)NC1=O (Ac-RSQRRF[R8]RDWRLL[S5]EN-NH2; staple (E) 7-14) | – | 1.9 µM
7 | – | CC(=O)N[C@@H](CCCNC(=N)N)C(=O)N[C@@H](CCCNC(=N)N)C(=O)N[C@@H](CCCNC(=N)N)C(=O)N[C@@H](CCCNC(=N)N)C(=O)N[C@@H](CCCNC(=N)N)C(=O)N[C@@H](Cc1ccccc1)C(=O)N[C@]1(C)CCCCCC/C=C/CCC[C@@](C)(C(=O)N[C@@H](CCC(=O)O)C(=O)N[C@@H](CC(N)=O)C(N)=O)NC(=O)[C@H](CC(C)C)NC(=O)[C@H](CC(C)C)NC(=O)[C@H](CCCCN)NC(=O)[C@H](Cc2c[nH]c3ccccc23)NC(=O)[C@H](CC(C)C)NC(=O)[C@H](CC(=O)O)NC1=O (Ac-RRRRRF[R8]DLWKLL[S5]EN-NH2; staple (E) 7-14) | – | 1.6 µM
8 | – | CC(=O)N[C@@H](CCCNC(=N)N)C(=O)N[C@@H](CO)C(=O)N[C@@H](CCC(N)=O)C(=O)N[C@@H](CCC(=O)O)C(=O)N[C@@H](CCCNC(=N)N)C(=O)N[C@@H](Cc1ccccc1)C(=O)N[C@]1(C)CCCCCC/C=C/CCC[C@@](C)(C(=O)N[C@@H](CCC(=O)O)C(=O)N[C@@H](CC(N)=O)C(N)=O)NC(=O)[C@H](CC(C)C)NC(=O)[C@H](CCCNC(=N)N)NC(=O)[C@H](CCCNC(=N)N)NC(=O)[C@H](Cc2c[nH]c3ccccc23)NC(=O)[C@H](CC(C)C)NC(=O)[C@H](CCCNC(=N)N)NC1=O (Ac-RSQERF[R8]RLWRRL[S5]EN-NH2; staple (E) 7-14) | – | 7.2 µM
9 | – | CC(=O)N[C@@H](CC(C)C)C(=O)N[C@@H](CO)C(=O)N[C@@H](CCC(N)=O)C(=O)N[C@@H](CCC(=O)O)C(=O)N[C@H](C(=O)N[C@@H](C)C(=O)N[C@]1(C)CCCCCC/C=C/CCC[C@@](C)(C(=O)N[C@@H](CCCNC(=N)N)C(=O)N[C@@H](CCCNC(=N)N)C(N)=O)NC(=O)[C@H](CC(C)C)NC(=O)[C@H](CCCNC(=N)N)NC(=O)[C@H](CCCNC(=N)N)NC(=O)[C@H](Cc2c[nH]c3ccccc23)NC(=O)[C@H](CC(C)C)NC(=O)[C@H](CCCNC(=N)N)NC1=O)[C@@H](C)O (Ac-LSQETA[R8]RLWRRL[S5]RR-NH2; staple (E) 7-14) | – | 4.8 µM
10 | – | COc1ccc(C2=N[C@@H](c3ccc(Cl)cc3)[C@@H](c3ccc(Cl)cc3)N2C(=O)N2CCNC(=O)C2)c(OC(C)C)c1 [NUTLIN-3] | – | 22.8 µM
11 | – | CC(=O)N[C@@H](CCC(N)=O)C(=O)N[C@@H](CO)C(=O)N[C@@H](CCC(N)=O)C(=O)N[C@@H](CCC(N)=O)C(=O)N[C@H](C(=O)N[C@@H](Cc1ccccc1)C(=O)N[C@]1(C)CCCCCC/C=C/CCC[C@@](C)(C(=O)N[C@@H](CCC(N)=O)C(=O)N[C@@H](CC(N)=O)C(N)=O)NC(=O)[C@H](CC(C)C)NC(=O)[C@H](CC(C)C)NC(=O)[C@H](CCCCN)NC(=O)[C@H](Cc2c[nH]c3ccccc23)NC(=O)[C@H](CC(C)C)NC(=O)[C@H](CC(N)=O)NC1=O)[C@@H](C)O (Ac-QSQQTF[R8]NLWKLL[S5]QN-NH2; staple (E) 7-14) | – | 10.2 µM
12 | – | CC(=O)N[C@@H](CC(C)C)C(=O)N[C@@H](CCCNC(=N)N)C(=O)N[C@@H](CCCNC(=N)N)C(=O)N[C@@H](CCC(=O)O)C(=O)N[C@H](C(=O)N[C@@H](Cc1ccccc1)C(=O)N[C@]1(C)CCCCCC/C=C/CCC[C@@](C)(C(=O)N[C@@H](CCCNC(=N)N)C(=O)N[C@@H](CCCNC(=N)N)C(N)=O)NC(=O)[C@H](CC(C)C)NC(=O)[C@H](CCCNC(=N)N)NC(=O)[C@H](CCCCN)NC(=O)[C@H](Cc2c[nH]c3ccccc23)NC(=O)[C@H](CC(C)C)NC(=O)[C@H](CC(=O)O)NC1=O)[C@@H](C)O (Ac-LRRETF[R8]DLWKRL[S5]RR-NH2; staple (E) 7-14) | – | 3.2 µM
13 | – | CCN(CC)c1ccc2c(-c3ccc(S(=O)(=O)NCCC(=O)N[C@@H](CC(C)C)C(=O)N[C@@H](CO)C(=O)N[C@@H](CCC(N)=O)C(=O)N[C@@H](CCC(=O)O)C(=O)N[C@H](C(=O)N[C@@H](Cc4ccccc4)C(=O)N[C@]4(C)CCCCCC/C=C/CCC[C@@](C)(C(=O)N[C@@H](CCCNC(=N)N)C(=O)N[C@@H](CCCNC(=N)N)C(N)=O)NC(=O)[C@H](CC(C)C)NC(=O)[C@H](CCCNC(=N)N)NC(=O)[C@H](CCCNC(=N)N)NC(=O)[C@H](Cc5c[nH]c6ccccc56)NC(=O)[C@H](CC(C)C)NC(=O)[C@H](CCCNC(=N)N)NC4=O)[C@@H](C)O)cc3S(=O)(=O)[O-])c3ccc(=[N+](CC)CC)cc-3oc2c1 ({X1-βAla}-LSQETF[R8]RLWRRL[S5]RR-NH2; staple (E) 7-14) | 284 nM | –

Row | SMILES | Drug uptake [2] | Drug uptake [1] | EC50 (SJSA-1)
14 | CCN(CC)c1ccc2c(-c3ccc(S(=O)(=O)NCCC(=O)N[C@@H](CC(C)C)C(=O)N[C@@H](CO)C(=O)N[C@@H](CCC(N)=O)C(=O)N[C@@H](CCC(=O)O)C(=O)N[C@H](C(=O)N[C@@H](Cc4ccccc4)C(=O)N[C@]4(C)CCCCCC/C=C/CCC[C@@](C)(C(=O)N[C@@H](CCC(=O)O)C(=O)N[C@@H](CC(N)=O)C(N)=O)NC(=O)[C@H](CC(C)C)NC(=O)[C@H](CC(C)C)NC(=O)[C@H](CCCCN)NC(=O)[C@H](Cc5c[nH]c6ccccc56)NC(=O)[C@H](CC(C)C)NC(=O)[C@H](CC(=O)O)NC4=O)[C@@H](C)O)cc3S(=O)(=O)[O-])c3ccc(=[N+](CC)CC)cc-3oc2c1 | 12.4% | 62 nM | –
